In patent US6818662B2, “Pharmaceutical composition” (Taisho Pharmaceutical Co., Ltd., priority 2002, dated 2004):
Values after ≈ are worked out from the molar mass of the structure shown.

How the values were obtained:
Format in all cases: physicochemical
[1] = Solubility in vehicles for micelles, co-solvents and lipid emulsion preparations
Description: (§1) The present invention can be disclosed in more detail as follows. Since N-(3-chloro-4-morpholin-4-yl)phenyl-N′-hydroxyimidoformamidine was unstable in an acidic solution, solubilization by forming it into an acidic salt thereof was not proper. Furthermore, the solubility of N-(3-chloro-4-morpholin-4-yl)phenyl-N′-hydroxyimidoformamidine in 5% Tween 80, 10% polyethylene glycol, soybean oil and olive oil, which were used for forming it into micelles, co-solvents and lipid emulsion preparations, was not more than 0.5 mg/mL at 25° C. and was insufficient for forming it into these micelles, co-solvents and lipid emulsion preparations. […] Based on this unpredictable finding in which in the case of the sulfobutyl ether β-cyclodextrin solution, the drug is stable over light exposure and thus, it is convenient for actual use without a special care such as shading, the present invention has been accomplished.

[2] = Solubilization test; conditions: 25° C.
Protocol: An excess amount of N-(3-chloro-4-morpholin-4-yl)phenyl-N′-hydroxyimidoformamidine was added to 10% and 20% aqueous solutions of sulfobutyl ether β-cyclodextrin sodium salt (Captisol (trade name); average substitution degree is about 7) and purified water as a control, respectively. After shaking on a water bath adjusted at 25° C. for one day, the solubility of the drug was measured.

[3] = Stability in acidic solution
Description: as §1

Compound: ON=CNc1ccc(N2CCOCC2)c(Cl)c1 [N-(3-chloro-4-morpholin-4-yl)phenyl-N′-hydroxyimidoformamidine]
- solubility ([1]; 5% Tween 80, 25° C.): not more than 0.5 mg/mL
- solubility ([1]; 10% polyethylene glycol, 25° C.): not more than 0.5 mg/mL
- solubility ([1]; olive oil, 25° C.): not more than 0.5 mg/mL
- solubility ([1]; soybean oil, 25° C.): not more than 0.5 mg/mL
- solubility ([2]; 10% aqueous solution of sulfobutyl ether β-cyclodextrin sodium salt): 3570 µg/mL
- solubility ([2]; 20% aqueous solution of sulfobutyl ether β-cyclodextrin sodium salt): 7670 µg/mL
- solubility ([2]; purified water (control), shaking one day): 80 µg/mL (≈ 313 µM)
- stability in an acidic solution [3]: unstable
